Experimental data from the NIST ThermoML archive (doi:10.1016/j.jct.2003.09.004).

Columns and labels:
[1] = 298.15 K, 101.33 kPa, Liquid
[2] = excess molar enthalpy (molar enthalpy of mixing); xn = mol fraction of the nth substance listed; conditions: 298.15 K, 101.33 kPa, Liquid, Flow calorimetry

CC(C)CC(C)(C)C [2,2,4-trimethylpentane]
Conditions | mass density [kg/m3]
[1], Vibrating tube method | 688.03

CCC(C)(C)C [2,2-dimethylbutane]
Conditions | mass density [kg/m3]
[1] | 644.92

CCC(C)(C)C [2,2-dimethylbutane] + C=CCCCC
[2]
Conditions | excess molar enthalpy [kcal/mol]
x2 = 0.05 | 0.00286
x2 = 0.1 | 0.0056
x2 = 0.1576 | 0.00829
x2 = 0.2005 | 0.01
x2 = 0.2501 | 0.0116
x2 = 0.3002 | 0.0129
x2 = 0.3501 | 0.0138
x2 = 0.4002 | 0.0145
x2 = 0.4507 | 0.0149
x2 = 0.4999 | 0.0149
x2 = 0.5498 | 0.0147
x2 = 0.5996 | 0.0142
x2 = 0.6496 | 0.0134
x2 = 0.7 | 0.0124
x2 = 0.7501 | 0.0109
x2 = 0.7999 | 0.00973
x2 = 0.85 | 0.00798
x2 = 0.9 | 0.00524
x2 = 0.95 | 0.00272

CC(C)C(C)C [2,3-dimethylbutane]
Conditions | mass density [kg/m3]
[1] | 662.36

CC(C)C(C)C [2,3-dimethylbutane] + C=CCCCC
[2]
Conditions | excess molar enthalpy [kcal/mol]
x2 = 0.05 | 0.00357
x2 = 0.1001 | 0.00689
x2 = 0.1535 | 0.0101
x2 = 0.2 | 0.0124
x2 = 0.2508 | 0.0147
x2 = 0.2997 | 0.0162
x2 = 0.3499 | 0.0175
x2 = 0.3997 | 0.0186
x2 = 0.4498 | 0.019
x2 = 0.4998 | 0.0189
x2 = 0.5498 | 0.0186
x2 = 0.5996 | 0.0179
x2 = 0.6497 | 0.0169
x2 = 0.6997 | 0.0154
x2 = 0.7498 | 0.0136
x2 = 0.8001 | 0.0117
x2 = 0.8501 | 0.00924
x2 = 0.9 | 0.00639
x2 = 0.9499 | 0.00332

CCCC(C)C [2-methylpentane]
Conditions | mass density [kg/m3]
[1] | 650.22

CCCC(C)C [2-methylpentane] + C=CCCCC
[2]
Conditions | excess molar enthalpy [kcal/mol]
x2 = 0.0501 | 0.00256
x2 = 0.1 | 0.00496
x2 = 0.1504 | 0.00721
x2 = 0.2 | 0.00904
x2 = 0.2499 | 0.0106
x2 = 0.3001 | 0.0119
x2 = 0.3495 | 0.0128
x2 = 0.4001 | 0.0135
x2 = 0.4498 | 0.0139
x2 = 0.4997 | 0.014
x2 = 0.5501 | 0.0139
x2 = 0.6 | 0.0135
x2 = 0.6501 | 0.0128
x2 = 0.6993 | 0.0118
x2 = 0.7503 | 0.0104
x2 = 0.8001 | 0.00938
x2 = 0.8575 | 0.00688
x2 = 0.9 | 0.00513
x2 = 0.95 | 0.00269

CCC(C)CC [3-methylpentane]
Conditions | mass density [kg/m3]
[1] | 659.94

CCC(C)CC [3-methylpentane] + C=CCCCC
[2]
Conditions | excess molar enthalpy [kcal/mol]
x2 = 0.0501 | 0.00244
x2 = 0.1001 | 0.00478
x2 = 0.1533 | 0.00687
x2 = 0.2001 | 0.00842
x2 = 0.2501 | 0.00987
x2 = 0.3 | 0.0111
x2 = 0.3495 | 0.0119
x2 = 0.3995 | 0.0126
x2 = 0.45 | 0.013
x2 = 0.4995 | 0.0131
x2 = 0.5498 | 0.0129
x2 = 0.5997 | 0.0125
x2 = 0.6501 | 0.0119
x2 = 0.6994 | 0.0109
x2 = 0.7509 | 0.00972
x2 = 0.7999 | 0.00839
x2 = 0.85 | 0.00659
x2 = 0.9 | 0.00455
x2 = 0.95 | 0.00235

C=CCCCC [hex-1-ene]
Conditions | mass density [kg/m3]
[1] | 668.73

C=CCCCC [hex-1-ene] + CC(C)CC(C)(C)C
[2]
Conditions | excess molar enthalpy [kcal/mol]
x1 = 0.0501 | 0.0024
x1 = 0.1001 | 0.00448
x1 = 0.1501 | 0.00647
x1 = 0.2075 | 0.00837
x1 = 0.2499 | 0.00967
x1 = 0.2998 | 0.0109
x1 = 0.35 | 0.0119
x1 = 0.3998 | 0.0128
x1 = 0.4498 | 0.013
x1 = 0.4998 | 0.0134
x1 = 0.5497 | 0.0134
x1 = 0.5997 | 0.0131
x1 = 0.6499 | 0.0125
x1 = 0.6997 | 0.0117
x1 = 0.75 | 0.0105
x1 = 0.7994 | 0.00905
x1 = 0.8498 | 0.0074
x1 = 0.9 | 0.00524
x1 = 0.95 | 0.00273
